Test results as given in a melting point compilation (Tetko et al.; mined from patent text by program, amines drawn as free bases though some values may be those of a salt).

Row | Compound | melting point [°C]
1 | CCc1c(Cl)nc(Cl)nc1N(C=O)c1cc(C)cc(C)c1 | 124 to 125
2 | CCC(C(=O)OC)[C@@H](C)O (stereo partly specified) | 72.4 to 73.3
3 | C[C@@H](NC(=O)c1sc(-c2ccc(C#N)cc2)nc1C(F)(F)F)[C@](O)(Cn1cncn1)c1ccc(F)cc1F | 101 to 108
4 | CCCCCCCCCCCCCCCC(=O)C1=C(O)COC1=O | 81 to 83
5 | O=C(Nc1cc(Cl)cc(Cl)c1)c1cccc(Cl)c1O | 255 to 256
6 | c1ccc(COc2ccc(-c3cocn3)cc2)cc1 | 101 to 102
7 | COC(=O)C1=C(C)NC(C)=C(C(=O)O)C1c1ccccc1C(F)(F)F (single isomer, unassigned; (+)) | 109
8 | CC(C)=CCC/C(C)=C/COCC(=O)c1cc(C(C)(C)C)c(O)c(C(C)(C)C)c1 | 50
9 | CC(C)(C)OC(=O)N1CCN(c2cc(N)nc(N)n2)CC1 | 176 to 179
10 | Clc1ccc(-c2nc(COCc3ccccc3)ns2)nn1 | 109 to 110
11 | CN(C)S(=O)(=O)Oc1c(Cl)cc(C(C)(C)C)cc1CNC(=O)OC(C)(C)C | 122 to 123
12 | Nc1nc(N)c(CCCCCc2ccccc2)c(CCCCc2ccccc2)n1 | 75 to 78
13 | O=C(O)CCCCCCCCCCCCCCC(=O)ON1C(=O)CCC1=O | 118 to 121
14 | CC(C)Cn1c(=O)n(C)c(=O)c2c(SCCCO)c(Cc3cccnc3)sc21 | 119 to 121
15 | Cc1nc(N2CCN(Cc3ccc(F)cc3)C2=O)sc1C(=O)NCc1cnccn1 | 185 to 187
16 | CC(=O)C=CCCc1ccc(OCc2ccccc2)cc1 | 70 to 72
17 | Cn1cncc1C(O)(c1ccoc1)c1ccc2nc(Cl)cc(-c3cccc(Cl)c3)c2c1 (stereo unspecified) | 246
18 | CCn1cc(C(=O)O)c(=O)c2cnc(N3CCN(CC(C)O)CC3)nc21 (stereo unspecified) | 214 to 216
19 | CCc1cc2c(ccc(=O)n2Cc2ccc(C(=O)O)cc2)c(CC)n1 | 143 to 146
20 | CCOP(=O)(Cc1ccc(C2=NCCO2)cc1)OCC | 65
21 | CCCC(=O)c1cnc2c(C(O)CN(C)C)cccc2c1Nc1ccccc1C (stereo unspecified) | 95 to 96
22 | CC(C)COC(=O)ON1C(=O)CCC1=O | 33 to 35
23 | Nc1ncc(Cc2ccccc2)cc1Br | 110 to 111
24 | CC1(C)OC(=O)Nc2ccc(-c3coc(C=O)c3)cc21 | 262 to 263
25 | C1=C(c2cccs2)CCN(CCCCc2c[nH]c3cc4c(cc23)OCO4)C1 | 86
26 | Cn1nc(-c2cccs2)c(N)c1N | 154 to 155

Row | Compound | melting point [°C]
27 | Oc1ccc(C(=C2CCCCCC2)c2ccc(Br)cc2)cc1F | 102 to 104
28 | CO[C@H]1O[C@@H](C)[C@@H]2[C@H](O)[C@H]3CCCC[C@@H]3C[C@H]12 | 123 to 124
29 | CCC1NC(=O)C2=C1c1ccc(Cl)cc1C(c1ccccc1Cl)=NC2 (stereo unspecified) | 233 to 235
30 | Cc1cc(OCCN2CCCCC2)ccc1NC(=O)NC1C2CC3CC(C2)CC1C3 (stereo unspecified) | 196
31 | COC(=O)C(C)(C)OCc1oc(-c2ccc(Cl)cc2)nc1C | 88 to 90
32 | O=Cc1cccc(OCCn2ncc3ccccc3c2=O)c1 | 110 to 111
33 | O=c1c2ccc(-c3nnn[nH]3)cc2oc2ccc(OCCO)cc12 | 270
34 | Cc1ccc(C(=O)NCC(O)CO)cc1-n1c(C)cc(OCc2ccccc2CNC(=O)Nc2cc(C(C)(C)C)nn2-c2cccc(OCCO)c2)c(Cl)c1=O (stereo unspecified) | 158 to 160
35 | CC1=C(CCC(C)CCC(=O)O)C(=O)c2ccccc2C1=O (stereo unspecified) | 58 to 61
36 | COc1cc2c(cc1Br)-c1c(Br)c3c(n1CC2)C(=O)N(C(C)(C)C)CCC3 | 218 to 220
37 | Cc1ccc(C2CC(n3cncn3)c3ccccc3N2)cc1 (stereo unspecified) | 146 to 148
38 | CCOC(=O)C1=C(C)Nc2ncnc(OC(C)C)c2C1c1ccccc1C(F)(F)F (stereo unspecified) | 155
39 | C=CCN(CC=C)c1nc(Cl)nc2c(SC)ncnc12 | 83 to 84
40 | O=C(NC1CCc2ccccc2C(CCCc2ccccc2)C1=O)OCc1ccccc1 (stereo unspecified) | 106 to 108
41 | O=C(CNC(=O)c1ccc([N+](=O)[O-])cc1F)OCc1ccccc1 | 104 to 106
42 | CCOc1ccc(C(CC(N)=O)N2C(=O)c3ccccc3C2=O)cc1 (stereo unspecified) | 191
43 | O=C(OCN1C(=O)c2ccccc2C1=O)c1ccccc1N=Nc1ccc(O)c(O)n1 | 196 to 201
44 | CCOC(=O)c1cn(C2CC2)c2cc(F)c(F)c(N)c2c1=O | 240 to 241
45 | O=CCCOc1ccc(CC2SC(=O)NC2=O)cc1 (stereo unspecified) | 48 to 51
46 | CCS(=O)(=O)Nc1cccc(SCc2ccccc2)n1 | 87 to 92
47 | C[C@H](C#Cc1sccc1COCc1ccc(F)cc1)N(O)C(N)=O | 94 to 95
48 | CON=C(C)COc1c(-c2ccc(S(C)(=O)=O)cc2)cnn(-c2ccc(F)c(F)c2)c1=O | 143 to 145
49 | O=C1C=CC(=O)N1c1ccc(Oc2ccc3ccc(Oc4ccc(N5C(=O)C=CC5=O)cc4)cc3c2)cc1 | 162 to 164
50 | Cc1c(-c2ccc(OCc3ccccc3)c(F)c2)[nH]c2ccc(OCc3ccccc3)cc12 | 135 to 137
51 | CCSc1nc(NCc2ccccc2)c2ncn(C3OC(CO)C(O)C3O)c2n1 (stereo unspecified) | 172 to 174
52 | CCc1c2c(nn1-c1ccccc1)c(=O)[nH]c1ccccc12 | 331 to 334

Row | Compound | melting point [°C]
53 | O=C1c2ccc(OC3CCCCC3)cc2CCC1CN1CCC(O)(c2ccccc2)CC1 (stereo unspecified) | 175 to 177
54 | Cc1c2c(nn1C(C)C)c(N)nc1ccccc12 | 221 to 222
55 | O=c1[nH]c(C(F)(F)F)c(Br)c(=O)[nH]1 | 236 to 240
56 | CCOC(=O)C(C)(C)c1ccc(C(O)CCCN2CCC(C(O)(c3ccccc3)c3ccccc3)CC2)cc1 (stereo unspecified) | 141 to 142
57 | COc1ncccc1-c1cncc(OC2SCC(OC(C)=O)C(OC(C)=O)C2OC(C)=O)c1 (stereo unspecified) | 167
58 | O=C1CCC(N2Cc3c(OCc4ccc(CN5CCOc6ccccc65)cc4)cccc3C2=O)C(=O)N1 (stereo unspecified) | 145 to 147
59 | COc1ccc(CS(=O)(=O)c2cc(OC)c(OC)c(OC)c2)cc1 | 95 to 97
60 | CC(=O)Oc1ccc2c(c1)CCC1C2CCC2(C)C1CC(O)C2N(C)C (stereo unspecified) | 173 to 175
61 | COc1ccc(C(SC)c2ccc(OC)cc2)cc1 | 62 to 63
62 | CCNC(=O)c1sc(S(C)=O)cc1[Si](C)(C)C (stereo unspecified) | 71 to 76
63 | CCOC(=O)C(C)(C)Oc1ccc(C(=O)c2cccs2)cc1 | 45
64 | CC[C@H](C)[C@H](NC(=O)OCc1ccccc1)C(=O)N[C@@H](CO)Cc1c[nH]c2ccccc12 | 198 to 199
65 | COc1ccc(CCC2CN(C3=Nc4cc(F)ccc4Nc4sc(C)cc43)CCN2C)cc1 (stereo unspecified) | 180 to 182
66 | ClCC1(CCl)Cc2cccc3cccc1c23 | 212 to 213
67 | CC(=O)c1cc(Cl)c(N)c(C#N)c1F | 180 to 182
68 | Nc1cccc(C(F)(F)C(F)(F)C(F)(F)C(F)(F)C(F)(F)C(F)(F)C(F)(F)C(F)(F)F)c1 | 35.5 to 36
69 | CCOC(=O)CCCC1CCN(CCOC(c2ccccc2)c2ccc(F)cc2)CC1 (stereo unspecified) | 119 to 120
70 | O=[N+]([O-])OCC#CCO | 107 to 110
71 | Cc1cc(C)n(C(=O)CNS(=O)(=O)c2ccc(C3CCCCC3)cc2)n1 | 138
72 | Cc1[nH]c2ccc(NS(C)(=O)=O)cc2c1C1=CCN(C)CC1 | 176 to 184
73 | O=C(Nc1ccc2c(c1)OCCO2)NC12CC3CC(CC(C3)C1)C2 | 230 to 236
74 | CC(C)Nc1cccnc1N(C)CCOC(=O)c1cc2ccccc2[nH]1 | 130 to 131
75 | CCCCCc1c(/C=C/C(=O)OC)sc2cc(OC)ccc12 | 49 to 50
76 | CC1c2cc(O)ccc2-c2ccc(O)cc21 | 192 to 196
77 | Cc1ccc(S(=O)(=O)Cc2c(C(F)(F)F)nn(C)c2O)cc1 | 135
78 | Oc1ccc(SC2CC3CC(Sc4ccc(O)cc4)C2C3)cc1 (stereo unspecified) | 142 to 146

Row | Compound | melting point [°C]
79 | CC(=O)C(C)Oc1cc(-n2c(=O)cc(C(F)(F)F)[nH]c2=O)c(F)cc1Br (stereo unspecified) | 183
80 | COc1cc2ncc(C#N)c(Nc3ccc(C(F)(F)F)cc3)c2cc1OC | 116 to 118
81 | CCN1CCCOc2cc(Nc3ncc(Cl)c(N[C@@H]4CCCC[C@H]4NS(C)(=O)=O)n3)ccc21 | 108 to 110
82 | CCC(=NNC(=O)OC(C)(C)C)c1ccncc1 | 170
83 | N[C@@H](C1CCCCC1)C(O)(Cc1ccccc1)Cc1ccccc1 | 80 to 81
84 | CCc1cc(NC(C)=O)c(C=O)c(CC)n1 | 91 to 92
85 | CCCCC1=NC2(CCCC2)C(=O)N1Cc1ccc(-c2ccccc2S(=O)(=O)Nc2onc(C)c2C)c(CCCC)c1 | 58 to 61
86 | CC1=CC(c2cccc(Br)c2)C2=C(CCCC2=O)N1 (stereo unspecified) | 187 to 191
87 | CCCCS(=O)(=O)Nc1cc(C(=O)Nc2ccccc2)ccc1OC | 182 to 183
88 | O=C(O)C1Cc2cc3c(-c4ccccc4Cl)noc3c(Cl)c2O1 (stereo unspecified) | 224 to 225
89 | CCCN(Cc1ccc(-c2ccccc2-c2nnn[nH]2)cc1)c1ccncc1C(=O)O | 195 to 200
90 | CCOC(=O)c1cnc2c(C=O)cc(CN3CCOCC3)cc2c1O | 202 to 204
91 | COCc1ncn2c1CN(C)C(=O)c1ccccc1-2 | 115 to 116
92 | CS(=O)(=O)Nc1cc([C@@H](O)CNC2CCN(c3ccc(S(=O)(=O)N(CC(=O)O)CC(=O)O)cc3)CC2)ccc1O | 163 to 166
93 | CCCCCCCCCCCCCCOc1ccc2cc(C(=O)O)oc2c1 | 131 to 135
94 | Cc1cccc(-c2nc(C)cc(NC3CCCCC3)n2)n1 | 59.6 to 65
95 | C[C@H](N=C(C(=O)N[C@@H](C)c1ccccc1)C(C)(C)C)c1ccccc1 | 96 to 97
96 | BrCCNC(c1ccccc1)(c1ccccc1)c1ccccc1 | 108 to 109
97 | CC(=O)NCCc1ccc(C=O)cc1 | 81 to 83
98 | CC(=O)Nc1cc(OS(=O)(=O)c2ccc(C)cc2)nc(=N)n1OC(C)=O | 196 to 200
99 | COC(=O)C=Cc1ccc(F)cc1 | 43 to 46
100 | CCN(CC)CCOc1ccc(-c2oc3ccccc3c2C(=O)c2cc(C)c(OC)c(C)c2)cc1 | 130 to 133
101 | Oc1nc2ccc3c(c2nc1O)CCCC3 | > 300
